Assay results from ChEMBL document CHEMBL2062364, “Discovery and optimization of new benzimidazole- and benzoxazole-pyrimidone selective PI3Kβ inhibitors for the treatment of phosphatase and TENsin homologue (PTEN)-deficient cancers” (J Med Chem, 2012).
pEC50, pIC50: −log10 of the molar value. In brackets after ≈: the same amount, converted by molar mass.

How the values were obtained:
[1] = AUC (0 to 24 hrs) in CB17/ICR-Prkdc SCID mouse at 10 mg/kg, po; format: ADME, organism-based; set-up: time < 24 hr, dose 10 mg/kg, route oral; settings: plasma
[2] = test system: Mus musculus; assay: Inhibition of Akt phosphorylation at T308 residue in tumor of po dosed SCID mouse bearing human PTEN-deficient PC3 cells administered BID; format: functional, organism-based; settings: PC-3
[3] = Terminal half life in CB17/ICR-Prkdc SCID mouse at 10 mg/kg, po; format: ADME, organism-based; set-up: dose 10 mg/kg, route oral; settings: in vivo, read-out: beta t1/2 (converted)
[4] = Clearance in CB17/ICR-Prkdc SCID mouse at 6 mg/kg, iv; format: ADME, organism-based; set-up: dose 6 mg/kg, route intravenous; settings: in vivo
[5] = AUC (0 to Tlast) in CB17/ICR-Prkdc SCID mouse at 10 mg/kg, po; format: ADME, organism-based; set-up: dose 10 mg/kg, route oral; settings: plasma
[6] = Cmax in CB17/ICR-Prkdc SCID mouse at 10 mg/kg, po; format: ADME, organism-based; set-up: dose 10 mg/kg, route oral; settings: in vivo
[7] = Inhibition of mTORC2-mediated Akt phosphorylation at Ser473 residue in PTEN-deficient human PC3 cells after 2 hrs by Western blot analysis; format: cell-based; settings: PC-3, 2 h
[8] = Plasma concentration in SCID mouse xenografted with PTEN-deficient human PC3 cells at 300 mg/kg, po BID measured after 0.5 hrs; format: ADME, organism-based, PC-3; set-up: dose 300 mg/kg, route oral
[9] = Drug uptake in tumor of SCID mouse xenografted with PTEN-deficient human PC3 cells at 300 mg/kg, po BID measured after 24 hrs; format: ADME, organism-based, Neoplasm, PC-3; set-up: dose 300 mg/kg, route oral; settings: read-out: Drug uptake
[10] = Drug uptake in tumor of SCID mouse xenografted with PTEN-deficient human PC3 cells at 300 mg/kg, po BID measured after 6 hrs; format: ADME, organism-based, Neoplasm, PC-3; set-up: dose 300 mg/kg, route oral; settings: read-out: Drug uptake
[11] = AUC (0 to infinity) in CB17/ICR-Prkdc SCID mouse at 6 mg/kg, iv; format: ADME, organism-based; set-up: time infinity, dose 6 mg/kg, route intravenous; settings: plasma
[12] = Drug metabolism in mouse liver microsomes; format: ADME, Microsome; settings: read-out: Drug metabolism
[13] = Thermodynamic solubility of the compound in phosphate buffer at pH 7.4 after 16 hrs by HPLC analysis; format: physicochemical; settings: read-out: Therm_solubility
[14] = Plasma concentration in SCID mouse xenografted with PTEN-deficient human PC3 cells at 300 mg/kg, po BID measured after 6 hrs; format: ADME, organism-based, PC-3; set-up: dose 300 mg/kg, route oral
[15] = test system: Plasma; assay: Plasma concentration in SCID mouse xenografted with PTEN-deficient human PC3 cells at 300 mg/kg, po BID measured after day 1; format: ADME, organism-based, PC-3; set-up: dose 300 mg/kg, route oral; settings: in vivo
[16] = AUC (0 to infinity) in CB17/ICR-Prkdc SCID mouse at 10 mg/kg, po; format: ADME, organism-based; set-up: time infinity, dose 10 mg/kg, route oral; settings: plasma
[17] = molecular target: T1, Phosphatidylinositol 4,5-bisphosphate 3-kinase catalytic subunit beta isoform (Homo sapiens, UniProt P42338); assay: Inhibition of human PI3Kbeta-mediated Akt phosphorylation at T308 residue expressed in PTEN-deficient human PC3 cells after 2 hrs by Western blot analysis; format: cell-based, PC-3
[18] = Drug uptake in tumor of SCID mouse xenografted with PTEN-deficient human PC3 cells at 300 mg/kg, po BID measured after 0.5 hrs; format: ADME, organism-based, Neoplasm, PC-3; set-up: dose 300 mg/kg, route oral; settings: read-out: Drug uptake
[19] = Drug metabolism in human liver microsomes; format: ADME, Microsome; settings: read-out: Drug metabolism
[20] = test system: Mus musculus; assay: Inhibition of Akt phosphorylation at T308 residue in plasma of po dosed SCID mouse bearing human PTEN-deficient PC3 cells administered BID; format: functional, organism-based; settings: PC-3, Plasma
[21] = molecular target: T1, Phosphatidylinositol 4,5-bisphosphate 3-kinase catalytic subunit beta isoform; assay: Inhibition of human PI3Kbeta-mediated Akt phosphorylation at Ser473 residue expressed in PTEN-deficient human PC3 cells by chemiluminescence assay; format: cell-based, PC-3
[22] = molecular target: Phosphatidylinositol 4,5-bisphosphate 3-kinase catalytic subunit gamma isoform (Homo sapiens, UniProt P48736); assay: Inhibition of human PI3Kgamma-mediated Akt phosphorylation at Ser473 residue expressed in mouse RAW264.7 cells after 0.5 to 2 hrs by Western blot analysis; format: cell-based
[23] = molecular target: Serine/threonine-protein kinase mTOR (Homo sapiens, UniProt P42345); assay: Inhibition of mTOR
[24] = test system: Mus musculus; assay: Inhibition of Akt phosphorylation at T308 residue in SCID mouse bearing human PTEN-deficient PC3 cells at 300 mg/kg, po BID measured after 6 hrs; format: functional; settings: PC-3, 6 h
[25] = test system: Mus musculus; assay: Tlast in CB17/ICR-Prkdc SCID mouse at 6 mg/kg, iv; format: ADME, organism-based; set-up: dose 6 mg/kg, route intravenous; settings: in vivo
[26] = AUC (0 to 24 hrs) in CB17/ICR-Prkdc SCID mouse at 6 mg/kg, iv; format: ADME, organism-based; set-up: time < 24 hr, dose 6 mg/kg, route intravenous; settings: plasma
[27] = Tmax in CB17/ICR-Prkdc SCID mouse at 10 mg/kg, po; format: ADME, organism-based; set-up: dose 10 mg/kg, route oral; settings: in vivo
[28] = Drug uptake in tumor of SCID mouse xenografted with PTEN-deficient human PC3 cells at 300 mg/kg, po BID measured after 1 hr; format: ADME, organism-based, Neoplasm, PC-3; set-up: dose 300 mg/kg, route oral; settings: read-out: Drug uptake
[29] = Plasma concentration in SCID mouse xenografted with PTEN-deficient human PC3 cells at 300 mg/kg, po BID measured after 24 hrs; format: ADME, organism-based, PC-3; set-up: dose 300 mg/kg, route oral
[30] = Drug uptake in tumor of SCID mouse xenografted with PTEN-deficient human PC3 cells at 300 mg/kg, po BID measured after 3 hrs; format: ADME, organism-based, Neoplasm, PC-3; set-up: dose 300 mg/kg, route oral; settings: read-out: Drug uptake
[31] = test system: Mus musculus; assay: Toxicity in SCID mouse bearing PTEN-deficient human PC3 cells assessed as weight loss at 300 mg/kg, po BID for 9 days; format: organism-based, PC-3; set-up: dose 300 mg/kg, route oral; settings: in vivo, 216 h
[32] = molecular target: Phosphatidylinositol 4,5-bisphosphate 3-kinase catalytic subunit alpha isoform (Homo sapiens, UniProt P42336); assay: Inhibition of human PI3Kalpha-mediated Akt phosphorylation at Ser473 residue expressed in human H460 cells after 0.5 to 2 hrs by Western blot analysis; format: cell-based
[33] = Plasma concentration in SCID mouse xenografted with PTEN-deficient human PC3 cells at 300 mg/kg, po BID measured after 3 hrs; format: ADME, organism-based, PC-3; set-up: dose 300 mg/kg, route oral

T1 sequence (P42338 whole entry, canonical isoform): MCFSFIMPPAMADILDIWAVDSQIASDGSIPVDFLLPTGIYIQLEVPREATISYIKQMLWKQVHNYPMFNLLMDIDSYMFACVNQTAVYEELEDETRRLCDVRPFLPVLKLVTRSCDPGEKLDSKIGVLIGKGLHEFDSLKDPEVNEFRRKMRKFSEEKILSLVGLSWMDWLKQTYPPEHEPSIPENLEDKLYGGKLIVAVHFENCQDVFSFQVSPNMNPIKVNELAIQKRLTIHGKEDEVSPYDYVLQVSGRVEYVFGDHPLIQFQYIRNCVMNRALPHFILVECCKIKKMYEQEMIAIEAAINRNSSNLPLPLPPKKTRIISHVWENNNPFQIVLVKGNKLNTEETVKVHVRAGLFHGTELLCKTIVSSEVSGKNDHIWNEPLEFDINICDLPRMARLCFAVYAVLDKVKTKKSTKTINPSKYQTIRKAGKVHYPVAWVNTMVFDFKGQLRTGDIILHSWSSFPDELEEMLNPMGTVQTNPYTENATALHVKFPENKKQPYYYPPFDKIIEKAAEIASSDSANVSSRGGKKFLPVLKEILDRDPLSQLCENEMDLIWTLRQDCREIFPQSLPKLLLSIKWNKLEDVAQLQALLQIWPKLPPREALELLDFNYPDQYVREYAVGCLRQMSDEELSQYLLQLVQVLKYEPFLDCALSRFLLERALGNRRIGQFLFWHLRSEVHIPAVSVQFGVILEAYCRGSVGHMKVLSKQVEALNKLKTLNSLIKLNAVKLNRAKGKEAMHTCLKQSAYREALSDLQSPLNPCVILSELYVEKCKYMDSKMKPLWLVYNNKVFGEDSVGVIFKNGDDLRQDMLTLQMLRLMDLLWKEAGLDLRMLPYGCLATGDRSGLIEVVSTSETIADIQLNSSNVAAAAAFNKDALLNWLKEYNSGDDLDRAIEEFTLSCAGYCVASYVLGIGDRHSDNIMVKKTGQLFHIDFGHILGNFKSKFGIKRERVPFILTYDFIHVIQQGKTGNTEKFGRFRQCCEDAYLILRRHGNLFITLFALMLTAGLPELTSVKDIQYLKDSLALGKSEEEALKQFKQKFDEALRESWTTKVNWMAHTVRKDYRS
Phosphatidylinositol 4,5-bisphosphate 3-kinase catalytic subunit gamma isoform, sequence (P48736 whole entry, canonical isoform): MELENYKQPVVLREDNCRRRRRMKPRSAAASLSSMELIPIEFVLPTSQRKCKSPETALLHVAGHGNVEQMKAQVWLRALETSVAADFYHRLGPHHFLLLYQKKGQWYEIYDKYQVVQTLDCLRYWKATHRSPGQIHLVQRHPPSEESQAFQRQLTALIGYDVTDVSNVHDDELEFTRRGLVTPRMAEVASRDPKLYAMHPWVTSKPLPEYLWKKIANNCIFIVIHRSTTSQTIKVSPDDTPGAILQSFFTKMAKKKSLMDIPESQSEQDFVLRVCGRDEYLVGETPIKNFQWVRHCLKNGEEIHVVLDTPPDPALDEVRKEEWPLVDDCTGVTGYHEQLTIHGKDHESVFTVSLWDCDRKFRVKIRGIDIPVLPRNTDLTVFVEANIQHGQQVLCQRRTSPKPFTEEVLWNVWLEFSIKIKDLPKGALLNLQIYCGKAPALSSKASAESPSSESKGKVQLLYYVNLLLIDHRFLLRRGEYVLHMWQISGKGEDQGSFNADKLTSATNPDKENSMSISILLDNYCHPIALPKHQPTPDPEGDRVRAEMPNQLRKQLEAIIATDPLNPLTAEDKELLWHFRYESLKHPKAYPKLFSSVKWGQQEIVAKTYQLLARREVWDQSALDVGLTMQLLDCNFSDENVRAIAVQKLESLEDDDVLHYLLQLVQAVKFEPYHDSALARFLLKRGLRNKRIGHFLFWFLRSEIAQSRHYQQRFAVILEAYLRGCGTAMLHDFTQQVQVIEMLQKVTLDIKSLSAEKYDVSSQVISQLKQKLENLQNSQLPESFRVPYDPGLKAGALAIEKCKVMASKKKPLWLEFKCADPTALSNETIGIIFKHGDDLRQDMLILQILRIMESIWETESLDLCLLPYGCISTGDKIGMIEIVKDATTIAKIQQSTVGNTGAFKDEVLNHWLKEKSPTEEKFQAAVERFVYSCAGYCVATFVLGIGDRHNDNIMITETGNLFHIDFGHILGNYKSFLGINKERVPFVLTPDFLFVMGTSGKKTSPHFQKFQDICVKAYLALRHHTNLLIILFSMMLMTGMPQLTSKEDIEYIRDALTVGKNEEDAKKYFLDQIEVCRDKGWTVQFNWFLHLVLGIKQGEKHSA
Phosphatidylinositol 4,5-bisphosphate 3-kinase catalytic subunit alpha isoform, sequence (P42336 whole entry, canonical isoform): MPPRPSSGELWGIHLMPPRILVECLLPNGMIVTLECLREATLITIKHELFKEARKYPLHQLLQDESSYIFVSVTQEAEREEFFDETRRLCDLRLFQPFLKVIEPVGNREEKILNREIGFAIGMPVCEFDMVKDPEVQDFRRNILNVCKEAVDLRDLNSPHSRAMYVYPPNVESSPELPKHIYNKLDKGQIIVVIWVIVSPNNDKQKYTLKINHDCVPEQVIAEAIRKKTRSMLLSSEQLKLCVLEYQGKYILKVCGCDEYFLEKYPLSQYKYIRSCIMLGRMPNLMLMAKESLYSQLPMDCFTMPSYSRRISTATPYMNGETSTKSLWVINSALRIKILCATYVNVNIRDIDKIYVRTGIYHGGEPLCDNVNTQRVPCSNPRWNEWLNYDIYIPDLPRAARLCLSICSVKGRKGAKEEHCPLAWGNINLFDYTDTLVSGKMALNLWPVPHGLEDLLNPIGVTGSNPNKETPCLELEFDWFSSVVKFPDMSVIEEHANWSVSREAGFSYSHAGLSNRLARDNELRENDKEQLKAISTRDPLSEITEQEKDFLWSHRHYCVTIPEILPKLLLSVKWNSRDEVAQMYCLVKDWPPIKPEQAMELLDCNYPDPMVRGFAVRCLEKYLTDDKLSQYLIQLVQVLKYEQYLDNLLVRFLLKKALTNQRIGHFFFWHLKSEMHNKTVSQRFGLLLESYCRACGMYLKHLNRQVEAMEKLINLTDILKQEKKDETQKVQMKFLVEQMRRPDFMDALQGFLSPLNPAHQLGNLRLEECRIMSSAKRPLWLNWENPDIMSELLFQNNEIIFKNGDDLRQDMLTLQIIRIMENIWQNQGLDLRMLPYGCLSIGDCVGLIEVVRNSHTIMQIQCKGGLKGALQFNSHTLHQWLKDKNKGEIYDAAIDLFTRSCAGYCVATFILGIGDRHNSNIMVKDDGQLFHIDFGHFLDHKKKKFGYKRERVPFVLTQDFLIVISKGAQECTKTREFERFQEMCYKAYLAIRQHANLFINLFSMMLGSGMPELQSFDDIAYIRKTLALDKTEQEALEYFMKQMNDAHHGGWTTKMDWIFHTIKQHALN

Compound: Cn1c(Cc2nc(N3CCOCC3)cc(=O)[nH]2)nc2ccccc21
- AUC(0-t) at 24 h [1]: 846 ng·h/mL
- pEC50 [2]: 5.68
- half-life [3]: 3.9 h
- clearance [4]: 51.7 mL/min/kg
- AUC(0-t) [5]: 846 ng·h/mL
- Cmax [6]: 641 ng/mL
- pIC50 [7]: 7.12
- concentration at 0.5 h [8]: 28 µM
- concentration at 24 h [9]: 0.7 µM
- concentration at 6 h [10]: 3.6 µM
- AUC(0-inf) [11]: 1950 ng·h/mL
- metabolised [12]: 13%
- solubility thermodynamic at 16 h [13]: 65 µM (≈ 21.1 µg/mL)
- concentration at 6 h [14]: 11 µM
- Drug uptake [15]: Active
- AUC(0-inf) [16]: 850 ng·h/mL
- pIC50 [17]: 6.73
- concentration at 0.5 h [18]: 13 µM
- metabolised [19]: 27%
- pEC50 [20]: 5.80
- pIC50 [21]: 7.12
- pIC50 [22]: < 5.00
- pIC50 [23]: < 5.00
- inhibition in vivo at 300 mg/kg [24]: > 50%
- Tlast [25]: 24 h
- AUC(0-t) at 24 h [26]: 1950 ng·h/mL
- Tmax [27]: 0.5 h
- concentration at 1 h [28]: 16 µM
- concentration at 24 h [29]: 1.7 µM
- concentration at 3 h [30]: 6 µM
- Activity [31]: Non-toxic
- pIC50 [32]: < 5.00
- concentration at 3 h [33]: 8 µM
